Laboratory results reported in patent publication US8158621B2, “Methods of treating or preventing autoimmune diseases with 2,4-pyrimidinediamine compounds” (Rigel Pharmaceuticals, Inc., priority 2002, dated 2012).

Experiments:
[1] = test system: Human Jurkat T-cells (clone N); test: Jurkat T-cell activation (anti-TCR, CD69 upregulation); format: cell-based
Method in brief: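 Jurkat cells in RPMI + 5% FBS preincubated with compound 1 h at 37 °C, then stimulated with anti-TCR C305 at 500 ng/ml for 20 h. CD69 surface expression stained with anti-CD69-APC and read by flow cytometry; IC50 versus solvent-only control.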

[2] = test system: cultured human mast cells (CHMC); test: CHMC low cell density IgE activation: tryptase assay; format: cell-based; details: low cell density; read-out: CHMC anti-IgE Tryptase
Method in brief: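 Cells pelleted, taken up in warm MT, plated at 1000-1500/well, held 1 hr 37° C. Anti-IgE added, 30 min 37° C. Plates spun; supernatant mixed with tryptase substrate, 30 min RT.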

[3] = test system: Primary T-cells; test: Primary T-cell cytokine production (αCD3/αCD28): IFNg; format: cell-based, human; details: read-out: 1° T-Cell IFNg IC50
Description: (§1) 2E8-4E8 PBMC or proliferating T cells grown in rIL-2 from healthy human donors were suspended in PBS were spun down (1500 rpm, 8-10 minutes) and resuspended in 100 ml RPMI Complete media (1% Pen-Strep, 1% L-Glutamine, 10 mM HEPES). The cells were plated in T175 flasks (37° C., 5% CO2) and monocytes were allowed to adhere for 2-3 hours. After monocyte attachment, non-adherent cells were harvested, counted by hemocytometer, washed several times with PBS then resuspended in Yssels Complete Media (Modified IMDM Media with 1% Human AB Serum, 1% Pen-Strep, 1% L-Glutamine, 10 mM HEPES) at […]. 90 uL of the cell dilution were then added to compounds diluted to 2× in Yssel's media and incubated for 30 minutes at 37° C. (5% CO2). After this preincubation step the compound/cell mixture was transferred to stimulation plates, as described below.
(§2) Stimulation plates were prepared by coating 96 well plates with 5 μg/ml αCD3 (BD PharMingen, Catalog #555336)+10 μg/ml αCD28 (Beckman Coulter, Catalog #IM1376) in PBS (no Ca^2+/Mg^2+) at 37° C. (5% CO2) for at 3-5 hours. After incubation with the stimulation antibodies, the cocktail was removed and the plates washed 3 times with PBS prior to addition of the primary T cell/compound mixture.
(§3) The compound/cell mixture was transferred to the stimulation plates and incubated for 18 hr at 37° C. (5% CO2). After the cell stimulation, ˜150 μl supernatant were transferred from each well into 96-well filter plates (Coming PVDF Filter Plates) spun down (2000 rpm, 2-3 minutes) and either used immediately for ELISA or LUMINEX measurements or frozen down at −80° C. for future use.
(§4) Luminex immunoassay multiplexing for TNF, IL-2, GMSCF, IL-4 and IFNg was performed essentially as described by the manufacturer (Upstate Biotechnology). Essentially 50 uL of sample was diluted into 50 uL assay diluent and 50 uL incubation buffer, then incubated with 100 uL of the diluted detection antibody for 1 hr at RT in the dark. The filter plate was washed 2× in Wash Buffer, then incubated with 100 uL of the diluted secondary reagent (SAV-RPE) for 30 min at RT in the dark. Finally the plates were washed 3 times and bead identification and RPE fluorescent measured by the Luminex instrument.
(§5) Varied concentrations of compound were compared to solvent only to determine the inhibition of T-cell activation IC50 of each compound.

[4] = test system: Primary T-cells; test: Primary T-cell cytokine production (αCD3/αCD28): IL-4; format: cell-based, human; details: read-out: 1° T-Cell IL4 IC50
Description: as §1, §2, §3, §4, §5

[5] = test system: Primary T-cells; test: Primary T-cell cytokine production (αCD3/αCD28): GMSCF; format: cell-based, human; details: read-out: 1° T-Cell GMSCF IC50
Description: as §1, §2, §3, §4, §5

[6] = test system: cultured human mast cells (CHMC); test: CHMC low cell density ionomycin activation: tryptase assay; format: cell-based
[7] = test system: bone marrow derived mast cells (BMMC); test: BMMC high cell density IgE activation: IL-6; format: cell-based, mouse; details: high cell density; read-out: BMMC anti-IgE IL-6
Description: (§6) After sensitizing, cells are counted, pelleted (1000 rpm, 5-10 minutes), and resuspended at 1-3×10^6 cells/ml in MT buffer. Add 100 ul of cell suspension to each well and 100 ul of compound dilutions. The final vehicle concentration is 0.5% DMSO. Incubate at 37° C. (5% CO2) for 1 hour. After 1 hour of compound treatment, stimulate cells with 6× stimulus (60 ng/ml DNP-BSA). Mix wells with the cells and allow plates to incubate at 37° C. (5% CO2) for one hour. After 1 hour incubation, pellet cells (10 minutes, 1000 RPM) and collect 200 ul per well of the supernatant, being careful not to disturb pellet, and transfer to a clean tube or 96-well plate. Place the supernatant plate on ice. During the 4-5 hour step (see next) perform the hexosiminidase assay. Resuspend cell pellet in 240 ul WEI-conditioned media containing 0.5% DMSO and corresponding concentration of compound. Incubate BMMC cells for 4-5 hours at 37° C. (5% CO2). After incubation, pellet cells (1000 RPM, 10 minutes) and collect 225 ul per well and place in −80° C. until ready to perform ELISAS. ELISAS are performed on appropriately diluted samples (determined empirically for each donor cell population so that the sample measurement falls within the standard curve) following the supplier's instructions.

[8] = test system: Primary T-cells; test: Primary T-cell cytokine production (αCD3/αCD28): IL-2; format: cell-based, human; details: read-out: 1° T-Cell IL2 IC50
Description: as §1, §2, §3
IL-2 ELISAs were performed using the Quantikine Human IL-2 ELISA kit (R&D Systems, Catalog # D2050) as described by the manufacturer and absorption was measured on a spectrophotometer at 450 nm wavelength. Blank values were substracted and absorbances were converted to pg/mL based on the standard curve.
as §4, §5

[9] = test system: bone marrow derived mast cells (BMMC); test: BMMC high cell density IgE activation: hexosaminidase; format: cell-based, mouse
[10] = test system: Primary T-cells; test: Primary T-cell cytokine production (αCD3/αCD28): TNF; format: cell-based, human; details: read-out: 1° T-Cell TNF IC50
Description: as §1
(5% CO2) for at 3-5 hours. After incubation with the stimulation antibodies, the cocktail was removed and the plates washed 3 times with PBS prior to addition of the primary T cell/compound mixture.
as §3, §4, §5

[11] = test system: bone marrow derived mast cells (BMMC); test: BMMC high cell density IgE activation: TNFalpha; format: cell-based, mouse; details: high cell density; read-out: BMMC anti-IgE TNF-alpha
Description: as §6

[12] = target: T1, Syk kinase (Homo sapiens, UniProt P43405); test: Syk kinase biochemical fluorescence polarization assay; details: isolated Syk kinase, fluorescence polarization, 4 uM ATP
T1 construct: purchased Upstate, Lake Placid NY

[13] = test system: basophil cells (human peripheral blood); test: Basophil anti-IgE activation: histamine release assay; format: cell-based; details: basophils, anti-IgE activation, histamine release; read-out: Basophils anti-IgE Histamine IC50
Description: The basophil activation assay was carried out using whole human peripheral blood from donors allergic to dust mites with the majority of the red blood cells removed by dextran sedimentation. Human peripheral blood was mixed 1:1 with 3% dextran T500 and RBCs were allowed to settle for 20-25min. The upper fraction was diluted with 3 volumes of D-PBS and cells were spun down for 10 min at 1500 rpm, RT. Supernatant was aspirated and cells were washed in an equal volume MT-buffer. Finally, cells were resuspended in MT-buffer containing 0.5% DMSO in the original blood volume. 80 uL cells were mixed with 20 uL compound in the presence of 0.5% DMSO, in triplicate, in a V-bottom 96-well tissue culture plate. A dose range of 8 compound concentrations was tested resulting in a 10-point dose response curve including maximum (stimulated) and minimum (unstimulated) response. […] The cells were stimulated for 30 minutes at 37° C., 5% CO2. The plate was spun for 10 min at 1500 rpm at room temperature and 80 uL the supernatant was harvested for histamine content analysis using the histamine ELISA kit supplied by Immunotech. The ELISA was performed according to supplier's instructions.

[14] = test system: cultured human mast cells (CHMC); test: CHMC low cell density ionomycin activation: hexosaminidase assay; format: cell-based; details: hexosaminidase release, read-out: CHMC Ionomycin Hexos. IC50
Description: (§7) Inhibition of degranulation was measured at both low and high cell density by quantifying the release of the granule specific factors tryptase, histamine and hexosaminidase. Inhibition of release and/or synthesis of lipid mediators was assessed by measuring the release of leukotriene LTC4 and inhibition of release and/or synthesis of cytokines was monitored by quantifying TNF-α, IL-6 and IL-13. Tryptase and hexosaminidase were quantified using fluorogenic substrates as described in their respective examples. Histamine, TNFα, IL-6, IL-13 and LTC4 were quantified using the following commercial ELISA kits: histamine (Immunotech #2015, Beckman Coulter), TNFα (Biosource #KHC3011), IL-6 (Biosource #KMC0061), IL-13 (Biosource #KHC0132) and LTC4 (Cayman Chemical #520211). The protocols of the various assays are provided below.

[15] = test system: bone marrow derived mast cells (BMMC); test: BMMC high cell density ionomycin activation: hexosaminidase; format: cell-based, mouse; details: read-out: BMMC Ionomycin Hexos.
Description: Add 50 uL of BMMC cell supernatant (see above) to the hexoseaminidase substrate, place at 37° C. for 30 minutes and read the plate at 5, 10, 15, and 30 minutes on a spectrophotometer.

[16] = test system: Jurkat cells; test: Jurkat (T-cell) toxicity, light scatter; format: cell-based, human; details: read-out: Toxicity Jurkat Light Scat.
Description: Dilute Jurkat cells to 2×10^5 cells/ml in complete RPMI (10% heat-inactivated fetal bovine serum) media and incubate at 37° C., 5% CO2 for 18 hours. Add 65 ul cells at 7.7×10^5 cells/ml to a 96-well V-bottom plate (TC-treated, Costar) containing 65 ul 2× compound (final vehicle concentration is 0.5% DMSO, 1.5% MeOH). Mix, incubate plates for 18-24 hr at 37° C., 5% CO2. Toxicity was assessed by flow cytometric analysis of cellular light scatter

[17] = test system: B-cell line BJAB; test: BJAB (B-cell) toxicity, light scatter; format: cell-based; details: read-out: Toxicity BJAB Light Scat.
Description: The B-cell line BJAB was cultured in log phase in RPMI1640+10% heat-inactivated fetal bovine serum, 1× L-glutamine, 1× penicillin, 1× […] and 1× beta-mercaptoethanol at 37° C., 5% CO2. First, BJABs were harvested, spun and resuspended in culture medium to a concentration of 7.7×10^5 cells/mL. 65 uL cells were mixed with 65 uL compound, in duplicate and in the presence of 0.1% DMSO in a V-bottomed 96-well tissue culture plate. Cells were incubated with compound at various dilutions at 37° C., 5% CO2. Toxicity was assessed by flow cytometric analysis of cellular light scatter.

[18] = test system: cultured human mast cells (CHMC); test: CHMC low cell density IgE activation: hexosaminidase assay; format: cell-based; details: anti-IgE activation, hexosaminidase release, read-out: CHMC anti-IgE Hexos. IC50
Description: as §7

[19] = test system: cultured human mast cells (CHMC); test: CHMC low cell density IgE activation: LTC4 assay; format: cell-based; details: anti-IgE activation, LTC4 release
Method in brief: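 Cultured human mast cells at low density (1000-1500 per well) rested 1 h at 37° C, then stimulated with anti-IgE for 30 min at 37° C. Supernatant tryptase measured with fluorogenic substrate (30 min, room temperature); LTC4 quantified by ELISA on diluted supernatant.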

[20] = test system: basophil cells (human peripheral blood); test: Basophil ionomycin activation: histamine release assay; format: cell-based; details: basophils, ionomycin activation, histamine release; read-out: Basophils Ionomycin Histamine IC50
Method in brief: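 Dextran-sedimented leukocytes from peripheral blood of dust-mite-allergic human donors were incubated with compound (8 concentrations, 0.5% DMSO, triplicate) and then stimulated with 2 μM ionomycin stock (20 μl added) for 30 min at 37° C. Histamine released into the supernatant was measured by ELISA.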

[21] = High Density, read-out: BMMC anti-IgE hexos

SMILES | IC50 [1] [µM] | IC50 [13] [µM] | IC50 [14] [µM] | IC50 [15] [µM] | IC50 [16] [µM] | IC50 [17] [µM] | IC50 [18] [µM] | IC50 [9, 21] [µM] | IC50 [19] [µM] | IC50 [20] [µM] | also measured
CNC(=O)COc1cccc(Nc2ncc(F)c(Nc3ccc4c(c3)NC(=O)[C@H](C)O4)n2)c1 [Compound R909317] | 0.224 | – | – | – | – | – | – | – | – | – | IC50 [2]: 0.0287 µM; IC50 [3]: 1.57 µM; IC50 [4]: 0.876 µM; IC50 [5]: 1.74 µM; IC50 ([6]; low cell density, read-out: CHMC Ionomycin Tryptase): > 10 µM; IC50 [7]: 0.006 µM; IC50 [8]: 1.32 µM; IC50 ([9]; high cell density, read-out: BMMC anti-IgE Hexos.): 0.002 µM; IC50 [10]: 0.595 µM; IC50 [11]: 0.007 µM; IC50 [12]: 0.008 µM
CCOc1ccc(Nc2nc(Nc3ccc(OC)c(OC)c3)ncc2F)cc1 [Compound R926108] | 10.4 | 0.95 | 6.4 | > 10 | > 10 | > 10 | 0.787 | 0.9 | 0.76 | > 10 | –
Oc1cccc(Nc2ncc(F)c(Nc3ccc4c(c3)OCCO4)n2)c1 [Compound R926210] | 4.38 | 0.37 | > 10 | > 10 | > 10 | > 10 | – | 0.6 | 0.8 | > 10 | IC50 ([6]; Low Density CHMC, ionomycin activation, tryptase release, read-out: CHMC Ionomycin Tryptase IC50): > 10 µM
CCOc1ccc(Nc2nc(Nc3cccc(O)c3)ncc2F)cc1 [Compound R926146] | > 10 | – | 6.7 | 5 | > 10 | > 10 | 0.761 | 1.35 | 1.59 | – | –
